This is an account of results in patent US20150140085A1, “FORMULATIONS COMPRISING IBRUTINIB” (PRINCIPIA BIOPHARMA INC., priority 2012, published 2015).

Data set [1] can be described thus: Determination of bioavailability, stomach (oral gavage) v. intraduodenal administration. Format: in vivo, Sprague dawley rats. Conditions: 20 mg/kg in Captex 355, fed female rats; for AUC / Cmax: plasma.
Protocol: Fed female Sprague dawley rats, 225-250 g with surgically implanted intra-duodenal catheters were obtained commercially. Rats were dosed solutions of ibrutinib via bolus injection: oral gavage was done to measure exposure after oral dosing, or dosing via administration through the intra-duodenal catheter to measure exposure bypassing the stomach. Ibrutinib was dosed at 20 mg/kg at a dose volume of 2 ml/kg. Blood was withdrawn at time points out to 24 hours and Ibrutinib quantitated via LC/MS/MS to obtain plasma concentrations. PK parameters were calculated via commercially available software and measures of exposure were used to assess differences in dosing routes.
The conditions of data set [2]: rats, reported; cited from earlier work.

As for ibrutinib, in data set [1] (ID (intra-duodenal catheter)), the “F (bioavailability)” value turned out to be 100%, the AUC was determined as 4943 ng·h/mL and the Cmax was determined as 884 ng/mL. In addition, in data set [1] (PO (oral gavage)), the “F (bioavailability)” value worked out at 21%, the AUC is 998 ng·h/mL and the Cmax came to 243 ng/mL. Also, the oral bioavailability in data set [2] is recorded as 22.8%.

For orientation: AUC means the area under the concentration-time curve, a measure of exposure. A higher AUC goes with high exposure. One may read the Cmax as the peak of the concentration-time curve.
